Measurements taken from patent US20210045385A1, “PYRIDAZINONE-SUBSTITUTED KETOXIMES AS HERBICIDES” (FMC Corporation, priority 2018, published 2021).

Experiments:
Assay type in all cases: in vivo
[1] = tested on: Italian ryegrass (Lolium mutiflorum); test: Test C preemergence, visual plant response rating
Outline: (§1)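 Visual injury on a 0 (no effect) to 100 (complete control) scale versus untreated controls, scored approximately 10 d after treatment under greenhouse conditions. Treatments used surfactant-containing non-phytotoxic solvent formulations, sprayed onto loam–sand soil preemergence or onto one- to two-leaf plants 2–10 cm tall postemergence.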

[2] = tested on: barnyardgrass (Echinochloa crus-galli); test: Test C preemergence, visual plant response rating
Outline: as §1

[3] = tested on: foxtail, giant (giant foxtail, Setaria faberi); test: Test C preemergence, visual plant response rating
Outline: as §1

kochia (Bassia scoparia) [4] = test: Test C preemergence, visual plant response rating
Outline: as §1

[5] = tested on: pigweed (Amaranthus retroflexus); test: Test C preemergence, visual plant response rating
Outline: as §1

[6] = tested on: ragweed (common ragweed, Ambrosia artemisiifolia); test: Test C preemergence, visual plant response rating
Outline: as §1

[7] = tested on: Italian ryegrass (Lolium mutiflorum); test: Test C postemergence, visual plant response rating
Outline: as §1

[8] = tested on: barnyardgrass (Echinochloa crus-galli); test: Test C postemergence, visual plant response rating
Outline: as §1

[9] = tested on: blackgrass (Alopecurus myosuroides); test: Test C postemergence, visual plant response rating
Outline: as §1

corn (Zea mays) = test: Test C postemergence, visual plant response rating
Outline: as §1

[10] = tested on: foxtail, giant (giant foxtail, Setaria faberi); test: Test C postemergence, visual plant response rating
Outline: as §1

[11] = tested on: galium (catchweed bedstraw, Galium aparine); test: Test C postemergence, visual plant response rating
Outline: as §1

kochia (Bassia scoparia) [12] = test: Test C postemergence, visual plant response rating
Outline: as §1

[13] = tested on: pigweed (Amaranthus retroflexus); test: Test C postemergence, visual plant response rating
Outline: as §1

[14] = tested on: ragweed (common ragweed, Ambrosia artemisiifolia); test: Test C postemergence, visual plant response rating
Outline: as §1

[15] = tested on: wheat (Triticum aestivum); test: Test C postemergence, visual plant response rating
Outline: as §1

[16] = tested on: barnyardgrass (Echinochloa crus-galli); test: Test D flooded paddy test, visual plant response rating; conditions: 250 g ai/ha, scale 0 to 100 (0 no effect, 100 complete control), 13 to 15 d
Outline: (§2)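 Rating is visual, on a 0 (no effect) to 100 (complete control) scale versus controls, taken 13 to 15 d after treatment in a greenhouse. Treatment went into paddy water kept 3 cm above the soil surface, with plants at the 2-leaf stage.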

[17] = tested on: duck salad (Heteranthera limosa); test: as above; conditions: 250 g ai/ha, scale 0 to 100 (0 no effect, 100 complete control), 13 to 15 d
Outline: as §2

rice (Oryza sativa) = test: as above; conditions: 250 g ai/ha, scale 0 to 100 (0 no effect, 100 complete control), 13 to 15 d
Outline: as §2

[18] = tested on: sedge umbrella (small-flower umbrella sedge, Cyperus difformis); test: as above; conditions: 250 g ai/ha, scale 0 to 100 (0 no effect, 100 complete control), 13 to 15 d
Outline: as §2

[19] = Test C, 31 g ai/ha, 0 is no effect, 100 is complete control
[20] = Test C, 125 g ai/ha, 0 is no effect, 100 is complete control
[21] = Test C, postemergence, 125 g ai/ha

Row | Structure (SMILES) | Ryegrass, Italian plant response rating (0 to 100 scale) [1, 19] | Barnyardgrass plant response rating (0 to 100 scale) [2, 19] | Foxtail, Giant plant response rating (0 to 100 scale) [3, 19] | Kochia plant response rating (0 to 100 scale) (kochia (Bassia scoparia) [4]; [19]) | Pigweed plant response rating (0 to 100 scale) [5, 19] | Ragweed plant response rating (0 to 100 scale) [6, 19] | Ryegrass, Italian plant response rating (0 to 100 scale) ([7]; Postemergence, 31 g ai/ha) | Ryegrass, Italian plant response rating (0 to 100 scale) [7, 21] | Barnyardgrass plant response rating (0 to 100 scale) ([8]; Postemergence, 31 g ai/ha) | Barnyardgrass plant response rating (0 to 100 scale) [8, 21] | Blackgrass plant response rating (0 to 100 scale) ([9]; Postemergence, 31 g ai/ha) | Blackgrass plant response rating (0 to 100 scale) [9, 21] | Corn plant response rating (0 to 100 scale) (corn (Zea mays); Postemergence, 31 g ai/ha) | Corn plant response rating (0 to 100 scale) (corn (Zea mays); [21]) | Foxtail, Giant plant response rating (0 to 100 scale) ([10]; Postemergence, 31 g ai/ha) | Foxtail, Giant plant response rating (0 to 100 scale) [10, 21] | Galium plant response rating (0 to 100 scale) ([11]; Postemergence, 31 g ai/ha) | Galium plant response rating (0 to 100 scale) [11, 21] | Kochia plant response rating (0 to 100 scale) (kochia (Bassia scoparia) [12]; Postemergence, 31 g ai/ha) | Kochia plant response rating (0 to 100 scale) (kochia (Bassia scoparia) [12]; [21]) | other results
1 | C#CCO/N=C(/c1c(O)c(C)nn(C)c1=O)c1cc(Cl)cc2ccccc12 [Compound 192] | 10 | 30 | 60 | 0 | 40 | 30 | 20 | 70 | 80 | 90 | 40 | 70 | 20 | 30 | 70 | 80 | 80 | 100 | 30 | 60 | Ryegrass, Italian plant response rating (0 to 100 scale) [1, 20]: 70; Barnyardgrass plant response rating (0 to 100 scale) [2, 20]: 90; Foxtail, Giant plant response rating (0 to 100 scale) [3, 20]: 90; Kochia plant response rating (0 to 100 scale) (kochia (Bassia scoparia) [4]; [20]): 20; Pigweed plant response rating (0 to 100 scale) [5, 20]: 100; Ragweed plant response rating (0 to 100 scale) [6, 20]: 70; Pigweed plant response rating (0 to 100 scale) ([13]; Postemergence, 31 g ai/ha): 50; Pigweed plant response rating (0 to 100 scale) [13, 21]: 80; Ragweed plant response rating (0 to 100 scale) ([14]; Postemergence, 31 g ai/ha): 80; Ragweed plant response rating (0 to 100 scale) [14, 21]: 90; Wheat plant response rating (0 to 100 scale) ([15]; Postemergence, 31 g ai/ha): 0; Wheat plant response rating (0 to 100 scale) [15, 21]: 50; Plant response rating, Barnyardgrass (Flood) [16]: 50; Plant response rating, Ducksalad (Flood) [17]: 70; Plant response rating, Rice (Flood) (rice (Oryza sativa)): 0; Plant response rating, Sedge, Umbrella (Flood) [18]: 70
2 | C#CCO/N=C(\c1ccc(F)c(Br)c1)c1c(O)c(C)nn(C)c1=O [Compound 164] | 0 | 0 | 10 | 0 | 70 | 0 | 0 | 70 | 30 | 60 | 30 | 50 | 10 | 30 | 10 | 70 | 60 | 70 | 30 | 70 | Ryegrass, Italian plant response rating (0 to 100 scale) ([1]; 125 g ai/ha): 30; Barnyardgrass plant response rating (0 to 100 scale) ([2]; 125 g ai/ha): 50; Foxtail, Giant plant response rating (0 to 100 scale) ([3]; 125 g ai/ha): 50; Kochia plant response rating (0 to 100 scale) (kochia (Bassia scoparia) [4]; 125 g ai/ha): 50; Pigweed plant response rating (0 to 100 scale) ([5]; 125 g ai/ha): 90; Ragweed plant response rating (0 to 100 scale) ([6]; 125 g ai/ha): 30; Pigweed plant response rating (0 to 100 scale) ([13]; Postemergence, 31 g ai/ha): 50; Pigweed plant response rating (0 to 100 scale) [13, 21]: 70; Ragweed plant response rating (0 to 100 scale) ([14]; Postemergence, 31 g ai/ha): 20; Ragweed plant response rating (0 to 100 scale) [14, 21]: 50; Wheat plant response rating (0 to 100 scale) ([15]; Postemergence, 31 g ai/ha): 20; Wheat plant response rating (0 to 100 scale) [15, 21]: 80; Plant response rating, Barnyardgrass (Flood) [16]: 0; Plant response rating, Ducksalad (Flood) [17]: 0; Plant response rating, Rice (Flood) (rice (Oryza sativa)): 0; Plant response rating, Sedge, Umbrella (Flood) [18]: 0
